The target of data set [1] is T1, Melanocortin receptor 3 (Homo sapiens, UniProt P41968). The experiment in a line: Agonist activity at human MC3 receptor expressed in CHO cells assessed as increase of alpha-MSH-induced cAMP accumulation at 10 uM relative to alpha-MSH. It counts as functional, cell-based. A general note: Changes in cAMP serve as a functional read-out for many G protein-coupled receptors.

The target of data set [2] is T2, Melanocortin receptor 5 (Homo sapiens, UniProt P33032). The experiment in a line: Agonist activity at human MC5 receptor expressed in CHO cells assessed as increase of alpha-MSH-induced cAMP accumulation at 10 uM relative to alpha-MSH. It counts as functional, cell-based.
T2 sequence (P33032 whole entry): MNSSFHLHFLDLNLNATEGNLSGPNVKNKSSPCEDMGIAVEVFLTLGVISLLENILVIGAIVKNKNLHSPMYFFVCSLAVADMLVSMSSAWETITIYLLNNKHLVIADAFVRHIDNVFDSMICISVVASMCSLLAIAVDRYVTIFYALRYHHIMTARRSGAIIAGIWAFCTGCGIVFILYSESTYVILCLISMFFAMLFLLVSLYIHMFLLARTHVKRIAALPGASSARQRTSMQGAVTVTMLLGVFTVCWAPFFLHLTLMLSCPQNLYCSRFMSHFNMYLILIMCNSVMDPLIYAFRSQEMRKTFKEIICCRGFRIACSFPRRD
The species named for data set [3] is Homo sapiens. The experiment in a line: Selectivity ratio of IC50 for human MC1 receptor to IC50 for human MC4 receptor.
For data set [4], the species on record is Homo sapiens. The experiment in a line: Selectivity ratio of EC50 for human MC1 receptor to EC50 for human MC4 receptor.
Data set [5] is filed under the species Homo sapiens. The experiment in a line: Selectivity ratio of IC50 for human MC5 receptor to IC50 for human MC4 receptor.
The species entered for data set [6] is Homo sapiens. The experiment in a line: Selectivity ratio of EC50 for human MC5 receptor to EC50 for human MC4 receptor.
In data set [7] the target is T3, Melanocortin receptor 4 (Homo sapiens, UniProt P32245). The experiment in a line: Agonist activity at human MC4 receptor expressed in CHO cells assessed as increase of alpha-MSH-induced cAMP accumulation at 10 uM relative to alpha-MSH. It counts as functional, cell-based.
T3 sequence (P32245 whole entry): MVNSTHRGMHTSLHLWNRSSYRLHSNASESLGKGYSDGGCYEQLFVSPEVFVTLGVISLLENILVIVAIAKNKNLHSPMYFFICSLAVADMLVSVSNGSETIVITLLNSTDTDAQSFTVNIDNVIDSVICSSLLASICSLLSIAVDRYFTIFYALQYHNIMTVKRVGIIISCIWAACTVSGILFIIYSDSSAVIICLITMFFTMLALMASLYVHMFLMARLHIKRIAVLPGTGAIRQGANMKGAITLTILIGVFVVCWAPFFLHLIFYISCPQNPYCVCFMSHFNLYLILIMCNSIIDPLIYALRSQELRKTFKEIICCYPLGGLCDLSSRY
Data set [8] concerns the target T4, Melanocyte-stimulating hormone receptor (Homo sapiens, UniProt Q01726). The experiment in a line: Agonist activity at human MC1 receptor expressed in CHO cells assessed as increase of alpha-MSH-induced cAMP accumulation at 10 uM relative to alpha-MSH. It counts as functional, cell-based.
Target sequence in this assay (Q01726 whole entry, looked up): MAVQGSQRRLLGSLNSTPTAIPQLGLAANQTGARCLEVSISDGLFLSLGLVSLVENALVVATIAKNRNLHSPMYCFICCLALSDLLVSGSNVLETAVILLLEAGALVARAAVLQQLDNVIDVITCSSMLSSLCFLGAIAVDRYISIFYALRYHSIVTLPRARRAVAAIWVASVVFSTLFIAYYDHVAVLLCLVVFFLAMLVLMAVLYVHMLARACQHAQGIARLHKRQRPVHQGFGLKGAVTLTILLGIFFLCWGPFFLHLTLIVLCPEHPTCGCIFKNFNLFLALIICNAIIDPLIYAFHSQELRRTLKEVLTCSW
A short description of data set [9]: Oral bioavailability in Sprague-Dawley rat at 4 mg/kg. It counts as ADME, organism-based. The settings on record: in vivo.
A short description of data set [10]: Clearance in Sprague-Dawley rat at 1 mg/kg, iv and 4 mg/kg, po. It counts as ADME, organism-based. Conditions: in vivo.
Data set [11] can be described thus: Volume of distribution at steady state in Sprague-Dawley rat at 1 mg/kg, iv and 4 mg/kg, po. It counts as ADME, organism-based. The settings on record: in vivo, read-out: Vdss.
Data set [12] can be described thus: Half life in Sprague-Dawley rat at 1 mg/kg, iv and 4 mg/kg, po. It counts as ADME, organism-based. The settings on record: in vivo.
The target of data set [13] is T3, Melanocortin receptor 4. The experiment in a line: Displacement of [125I]NDP-alpha-MSH from human MC4 receptor expressed in CHO cells. It counts as cell-based. For orientation: Displacement assays read how much labelled ligand stays bound in the presence of the test substance.
For data set [14], the target named is T3, Melanocortin receptor 4. The experiment in a line: Agonist activity at human MC4 receptor expressed in CHO cells assessed as increase of alpha-MSH-induced cAMP accumulation. It counts as functional, cell-based.
Data set [15] addresses T1, Melanocortin receptor 3. The experiment in a line: Agonist activity at human MC3 receptor expressed in CHO cells assessed as increase of alpha-MSH-induced cAMP accumulation. It counts as functional, cell-based.
Data set [16] concerns the target T2, Melanocortin receptor 5. The experiment in a line: Displacement of [125I]NDP-alpha-MSH from human MC5 receptor expressed in CHO cells. It counts as cell-based.
Data set [17] deals with T2, Melanocortin receptor 5. The experiment in a line: Agonist activity at human MC5 receptor expressed in CHO cells assessed as increase of alpha-MSH-induced cAMP accumulation. It counts as functional, cell-based.
Data set [18] deals with T4, Melanocyte-stimulating hormone receptor. The experiment in a line: Displacement of [125I]NDP-alpha-MSH from human MC1 receptor expressed in CHO cells. It counts as cell-based.
Target sequence in this assay (Q01726 whole entry): as the sequence (Q01726 whole entry, looked up) above
The target is the same in data set [19]. The experiment in a line: Agonist activity at human MC1 receptor expressed in CHO cells assessed as increase of alpha-MSH-induced cAMP accumulation. It counts as functional, cell-based.
Target sequence in this assay (Q01726 whole entry): as the sequence (Q01726 whole entry, looked up) above
The target of data set [20] is T1, Melanocortin receptor 3. The experiment in a line: Displacement of [125I]NDP-alpha-MSH from human MC3 receptor expressed in CHO cells. It counts as cell-based.

T1 sequence (P41968 whole entry): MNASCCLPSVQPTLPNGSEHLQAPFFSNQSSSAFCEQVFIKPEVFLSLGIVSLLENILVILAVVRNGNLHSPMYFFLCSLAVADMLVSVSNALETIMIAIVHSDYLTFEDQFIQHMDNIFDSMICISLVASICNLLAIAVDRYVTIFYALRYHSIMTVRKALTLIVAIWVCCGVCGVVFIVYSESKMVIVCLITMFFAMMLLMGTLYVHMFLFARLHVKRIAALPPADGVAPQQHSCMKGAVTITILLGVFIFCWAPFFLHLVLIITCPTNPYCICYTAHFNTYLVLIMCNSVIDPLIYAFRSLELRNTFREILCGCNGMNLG

Regarding `CC(C)N(CC(C1CCCCC1)N1CCN(C(=O)[C@@H]2CN(C(C)(C)C)C[C@H]2c2ccc(F)cc2F)CC1)S(C)(=O)=O` (single isomer, unassigned; diastereomer 2) [listing 1 of 2 here], the Activity at Melanocortin receptor 3 [1] amounted to 94%; on Melanocortin receptor 5 [2] it was 57%; at Melanocortin receptor 4 [7] it was 117%; in data set [8] it was 63%. Moreover, the Ratio IC50 in the data set filed under Homo sapiens [3] and in the data set listed under Homo sapiens [5] was 20 each time. For the same molecule, the Ratio EC50 in the data set filed under Homo sapiens [4] and in the data set filed under Homo sapiens [6] was 20 throughout.
Turning to `CCN(CC)CC(C1CCCCC1)N1CCN(C(=O)[C@@H]2CN(C(C)(C)C)C[C@H]2c2ccc(F)cc2F)CC1` (some centres not stated), the bioavailability in data set [9] amounted to 22%. In [10], this molecule displayed a clearance of 7.3 mL/min/kg. In data set [11], the Vd is 19 L/kg. The same molecule showed a half-life in data set [12] of 34 h. Further, the IC50 on Melanocortin receptor 4 [13] was found to be 260 nM. Also, the EC50 on Melanocortin receptor 4 [14] amounted to 570 nM. In addition, on Melanocortin receptor 4 [7], the Activity worked out at 101%.
Regarding `CC(=O)N(CC(C1CCCCC1)N1CCN(C(=O)[C@@H]2CN(C(C)(C)C)C[C@H]2c2ccc(F)cc2F)CC1)C(C)C` (stereo in doubt; 19B) [listing 1 of 2 here], the Activity on Melanocortin receptor 3 [1] turned out to be 81%; on Melanocortin receptor 5 [2], 64%; on Melanocortin receptor 4 [7], 123%; in [8] it was 61%. Also, the Ratio IC50 in the data set filed under Homo sapiens [3] and in the data set filed under Homo sapiens [5] was 20 throughout. The Ratio EC50 in the data set listed under Homo sapiens [4] and in the data set listed under Homo sapiens [6] was 20 each time.
As for `CC(=O)N(CC(CC(C)C)N1CCN(C(=O)[C@@H]2CN(C(C)(C)C)C[C@H]2c2ccc(F)cc2F)CC1)C(C)C` (single isomer, unassigned; diastereomer 2), the Activity on Melanocortin receptor 3 [1] was 109%; on Melanocortin receptor 5 [2] it was 56%; at Melanocortin receptor 4 [7], 113%; in [8] it was 77%. In addition, the Ratio IC50 in the data set filed under Homo sapiens [3] and in the data set filed under Homo sapiens [5] was 20 each time. In addition, the Ratio EC50 in the data set listed under Homo sapiens [4] and in the data set listed under Homo sapiens [6] was 20 in each case.
For `CC(C)N(CC(C1CCCCC1)N1CCN(C(=O)[C@@H]2CN(C(C)(C)C)C[C@H]2c2ccc(F)cc2F)CC1)C(=O)c1cnn(C(C)C)c1` (single isomer, unassigned; diastereomer 1), the Activity at Melanocortin receptor 3 [1] was found to be 102%; on Melanocortin receptor 5 [2], 62%; at Melanocortin receptor 4 [7], 106%; in [8], 60%. In addition, the Ratio IC50 in the data set filed under Homo sapiens [3] and in the data set filed under Homo sapiens [5] was 20 in each case. Further, the Ratio EC50 in the data set filed under Homo sapiens [4] and in the data set filed under Homo sapiens [6] was 20 throughout.
Regarding `CC(C)CC(CN(C(C)C)S(C)(=O)=O)N1CCN(C(=O)[C@@H]2CN(C(C)(C)C)C[C@H]2c2ccc(F)cc2F)CC1` (single isomer, unassigned; diastereomer 2), the Activity amounted to 87% on Melanocortin receptor 3 [1], 76% at Melanocortin receptor 5 [2], 100% on Melanocortin receptor 4 [7] and 62% in data set [8]. Moreover, the Ratio IC50 in the data set listed under Homo sapiens [3] and in the data set filed under Homo sapiens [5] was 20 in each case. For the same molecule, the Ratio EC50 in the data set filed under Homo sapiens [4] and in the data set filed under Homo sapiens [6] was 20 each time.
On to `CC(=O)N(CC(C1CCCCC1)N1CCN(C(=O)[C@@H]2CN(C(C)(C)C)C[C@H]2c2ccc(F)cc2F)CC1)C(C)C` (stereo in doubt; 19B) [listing 2 of 2 here], for which the EC50 on Melanocortin receptor 3 [15] was determined as 2000 nM; at Melanocortin receptor 5 [17], 2800 nM; at Melanocortin receptor 4 [14], 25 nM; in data set [19], 890 nM. Besides, the IC50 is 660 nM at Melanocortin receptor 5 [16], 28 nM at Melanocortin receptor 4 [13], 1800 nM in data set [18] and 6500 nM on Melanocortin receptor 3 [20]. This molecule had a bioavailability in data set [9] of 12%. In data set [10], the clearance worked out at 42 mL/min/kg. Further, the Vd in data set [11] worked out at 6.8 L/kg. In [12], this molecule had a half-life of 2.2 h.
On to `CC(C)N(CC(C1CCCCC1)N1CCN(C(=O)[C@@H]2CN(C(C)(C)C)C[C@H]2c2ccc(F)cc2F)CC1)S(C)(=O)=O` (single isomer, unassigned; diastereomer 2) [listing 2 of 2 here], for which the EC50 is 1800 nM at Melanocortin receptor 3 [15], > 5000 nM at Melanocortin receptor 5 [17], 13 nM at Melanocortin receptor 4 [14] and 540 nM in data set [19]. In addition, the IC50 at Melanocortin receptor 5 [16] worked out at 250 nM; at Melanocortin receptor 4 [13], 13 nM; in data set [18] it was 1000 nM; at Melanocortin receptor 3 [20] it was 3600 nM. Also, in data set [9], the bioavailability is 21%. In addition, in [10], the clearance was found to be 25 mL/min/kg. For the same molecule, the Vd in data set [11] is 6 L/kg. For the same molecule, in data set [12], the half-life is 2.7 h.
On to `CC(C)N(CC(C1CCCCC1)N1CCN(C(=O)[C@@H]2CN(C(C)(C)C)C[C@H]2c2ccc(F)cc2F)CC1)C(=O)c1ncccn1` (single isomer, unassigned; diastereomer 1), for which, in data set [9], the bioavailability came out at 26%. In data set [10], the clearance is 31 mL/min/kg. Further, in data set [11], the Vd stood at 3.8 L/kg. For the same molecule, in [12], the half-life is 1.8 h. This molecule had an IC50 at Melanocortin receptor 4 [13] of 35 nM. The EC50 on Melanocortin receptor 4 [14] turned out to be 10 nM.

A word on the bioavailability: it is dose-corrected exposure relative to a reference, in per cent. A low value points to little systemic uptake. The term half-life denotes how long it takes for the measured level to halve. Read a low half-life as fast loss. The term IC50 denotes the midpoint of a concentration-inhibition curve. High values mean a need for much substance, low ones inhibition by little substance. As usually defined, the EC50 is the midpoint of the concentration-response curve.

The record behind these values is ChEMBL document CHEMBL1208738, “Optimization of privileged structures for selective and potent melanocortin subtype-4 receptor ligands” (Bioorg Med Chem Lett, 2010).
